# Data published in patent US20120190752A1, “EXO-S-MECAMYLAMINE METHOD, USE, AND COMPOUND FOR TREATMENT” (Targacept Inc., priority 2009, published 2012).
# System: subjects with major depressive disorder (MDD) who were inadequate responders to citalopram
# Experiment: MADRS total score, Phase 2b add-on trial
# Type: in vivo, human
# Description: The Montgomery-Asberg Depression Rating Scale (abbreviated MADRS) is a ten-item diagnostic questionnaire which psychiatrists may use to measure the severity of depressive episodes in patients with mood disorders (Montgomery et al. 1979). It was designed in 1979 by British and Swedish researchers as an adjunct to the Hamilton Rating Scale for Depression (HAMD) which would be more sensitive to the changes brought on by antidepressants and other forms of treatment than the HAMD. There is, however, a high degree of statistical correlation between scores on the two measures. In more detail, a multi-center double-blind, randomized, placebo-controlled, parallel group, flexible dose titration study of TC-5214 as adjunctive therapy in subjects with major depressive disorder (MDD) who were inadequate responders to citalopram was conducted in centers in the US and India. The study consisted of a screening period, baseline/washout period, open-label phase, double-blind phase, and a follow-up visit. Subject participation in the study could continue for up to 16 weeks of treatment. Following a washout period of up to 28 days for other antidepressants, subjects with MDD and a MADRS total score >/=28 and a Clinical Global Impression-Severity (CGI-S) score >/=4 were enrolled on Day 1 into an open-label citalopram-only phase of the study. This phase lasted 8 weeks, with citalopram (CIT) dose increased from a once-daily dose of 20 mg (Day 1 through Week 4) to 40 mg (Week 4 through Week 8). A total of 579 subjects entered the open-label citalopram phase. At Week 8, subjects who tolerated 40 mg CIT, but whose MADRS score was reduced <50% from baseline and no lower than 17, and CGI-S≧4, were considered inadequate responders. These subjects (n=270) were randomized in a double-blind fashion to receive either placebo or TC-5214-23 as add-on therapy to continued CIT. The double-blind phase of the study also lasted 8 weeks (Week 8 to Week 16). Study drug, TC-5214-23 or placebo, was started at 2 mg daily (1 mg twice per day [BID] dosing), added on to continuing CIT (40 mg PO qd). After 2 weeks of treatment, the dose of TC-5214 could be increased to 4 mg (2 mg BID) or continued unchanged, with up-titration based upon good tolerability and inadequate therapeutic response. After a further 2 weeks, the dose of TC-5214 could be increased again to 8 mg (4 mg BID) if judged appropriate by the investigator, based upon good tolerability and inadequate therapeutic response. At any time during the double-blind phase of the study, placebo or TC-5214-23 could be reduced to the previous dose level following the emergence of unacceptable adverse events (AEs). […] At this follow-up, any signs or symptoms of relapse were evaluated. If a subject was prematurely discontinued from the study between Week 8 and Week 16 for any reason, the investigator was to make every effort to perform all evaluations as per protocol, assuming the subject had reached the end of the double-blind add-on treatment phase. These evaluations were to be made as soon as possible and within 2 weeks of discontinuation. […] There was no meaningful difference in results as a function of age, gender, site, or smoking status. With regard to efficacy endpoints, the following tables present efficacy used in the ITT (Intent-to-Treat) and PP (Per Protocol) populations unless otherwise specific. The primary inference was based upon Week 16 visit using the ITT population. Change from baseline was obtained by subtracting the baseline values from the individual on-treatment values. Change from Week 16 was obtained by subtracting the Week 16 values from the individual follow-up visit (Week 18/19) values. If either the baseline or Week 16 or on-treatment or follow-up value was missing, the change from baseline or Week 16 value was also set to missing. […]
# [1] = ITT (N = 133), Double Blind Week 16
# [2] = ITT (N = 133), Double Blind Week 18 (Follow-up)
# [3] = ITT and PP populations, result in words
# [4] = ITT population, Week 8 (double-blind baseline) to Week 16
# [5] = ITT, Double Blind Week 18 LOCF (Follow-up), change from Week 16
# [6] = PP (N = 113), Double Blind Week 16
# [7] = PP (N = 113), Double Blind Week 18 (Follow-up)
# [8] = PP, Double Blind Week 16 LOCF (change from Week 8)
# [9] = PP, Double Blind Week 18 LOCF (Follow-up), change from Week 16
smiles,measurement,setting,value
"CNC1(C)C2CCC(C2)C1(C)C (stereo in doubt) [TC-5214, (S)—N,2,3,3-tetramethylnorbornan-2-amine]",MADRS reduction from baseline ≧50%: Subjects with Response (number),[1],89
same,MADRS reduction from baseline ≧50%: Subjects with Response (percentage),[1],(67%)
same,MADRS reduction from baseline ≧50%: Subjects without Response (number),[1],44
same,MADRS reduction from baseline ≧50%: Subjects without Response (percentage),[1],(33%)
same,MADRS ≦10: Subjects with Remission (number),[1],69
same,MADRS ≦10: Subjects with Remission (percentage),[1],(52%)
same,MADRS ≦10: Subjects without Remission (number),[1],64
same,MADRS ≦10: Subjects without Remission (percentage),[1],(48%)
same,MADRS ≦12: Subjects with Remission (number),[1],77
same,MADRS ≦12: Subjects with Remission (percentage),[1],(58%)
same,MADRS ≦12: Subjects without Remission (number),[1],56
same,MADRS ≦12: Subjects without Remission (percentage),[1],(42%)
same,MADRS reduction from baseline ≧50%: Subjects with Response (number),[2],94
same,MADRS reduction from baseline ≧50%: Subjects with Response (percentage),[2],(71%)
same,MADRS reduction from baseline ≧50%: Subjects without Response (number),[2],39
same,MADRS reduction from baseline ≧50%: Subjects without Response (percentage),[2],(29%)
same,MADRS ≦10: Subjects with Remission (number),[2],73
same,MADRS ≦10: Subjects with Remission (percentage),[2],(55%)
same,MADRS ≦10: Subjects without Remission (number),[2],60
same,MADRS ≦10: Subjects without Remission (percentage),[2],(45%)
same,MADRS ≦12: Subjects with Remission (number),[2],86
same,MADRS ≦12: Subjects with Remission (percentage),[2],(65%)
same,MADRS ≦12: Subjects without Remission (number),[2],47
same,MADRS ≦12: Subjects without Remission (percentage),[2],(35%)
same,MADRS remission (≦10 or ≦12) proportion compared with placebo,[3],higher proportion of subjects meeting the remission criteria
same,MADRS responders (reduction from baseline ≧50%) proportion compared with placebo,[3],higher proportion of responders
same,MADRS total score change from baseline compared with placebo,[3],statistically significant decreases (improvements)
same,MADRS Total Score: Adjusted Mean Change TC-5214—Placebo (SD),[4],−7.54 (10.13)
same,MADRS Total Score: Effect Size,[4],0.74
same,MADRS Mean Difference between TC-5214 and Placebo,"ITT, Double Blind Week 16 LOCF (change from Week 8)",7.54
same,MADRS Adjusted Mean change,[5],−0.87
same,MADRS Mean Difference between TC-5214 and Placebo,[5],−0.54
same,MADRS Difference vs Placebo + CIT,"ITT, Week 8 to Week 16 LOCF",−7.45
same,MADRS Adj. Mean change,"ITT, change from Week 8 (double-blind baseline) to Week 16 LOCF, add-on to citalopram",−17.26
same,MADRS reduction from baseline ≧50%: Subjects with Response (number),[6],84
same,MADRS reduction from baseline ≧50%: Subjects with Response (percentage),[6],(74%)
same,MADRS reduction from baseline ≧50%: Subjects without Response (number),[6],29
same,MADRS reduction from baseline ≧50%: Subjects without Response (percentage),[6],(26%)
same,MADRS ≦10: Subjects with Remission (number),[6],67
same,MADRS ≦10: Subjects with Remission (percentage),[6],(59%)
same,MADRS ≦10: Subjects without Remission (number),[6],46
same,MADRS ≦10: Subjects without Remission (percentage),[6],(41%)
same,MADRS ≦12: Subjects with Remission (number),[6],72
same,MADRS ≦12: Subjects with Remission (percentage),[6],(64%)
same,MADRS ≦12: Subjects without Remission (number),[6],41
same,MADRS ≦12: Subjects without Remission (percentage),[6],(36%)
same,MADRS reduction from baseline ≧50%: Subjects with Response (number),[7],89
same,MADRS reduction from baseline ≧50%: Subjects with Response (percentage),[7],(79%)
same,MADRS reduction from baseline ≧50%: Subjects without Response (number),[7],24
same,MADRS reduction from baseline ≧50%: Subjects without Response (percentage),[7],(21%)
same,MADRS ≦10: Subjects with Remission (number),[7],70
same,MADRS ≦10: Subjects with Remission (percentage),[7],(62%)
same,MADRS ≦10: Subjects without Remission (number),[7],43
same,MADRS ≦10: Subjects without Remission (percentage),[7],(38%)
same,MADRS ≦12: Subjects with Remission (number),[7],81
same,MADRS ≦12: Subjects with Remission (percentage),[7],(72%)
same,MADRS ≦12: Subjects without Remission (number),[7],32
same,MADRS ≦12: Subjects without Remission (percentage),[7],(28%)
same,MADRS Adjusted Mean change,[8],−19.34
same,MADRS Mean Difference between TC-5214 and Placebo,[8],7.97
same,MADRS Adjusted Mean change,[9],−1.10
same,MADRS Mean Difference between TC-5214 and Placebo,[9],−0.20
